In the supplement of paper PMC12463676, “Small-molecule dissolution of stress granules by redox modulation benefits ALS models” (Nature Chemical Biology, 2025):

Experiments:
[1] = compound: NC(=O)CCCCC1CCSS1 [lipoamide]; test: thermal stability z-score vs DMSO; higher = more thermally stabilized by treatment; conditions: HeLa, lipoamide concentration 100 µM
Description: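 Cellular thermal proteome profiling in HeLa cells. Cells were treated with 100 µM lipoamide for 1 h, with or without 1 mM arsenate for a further 1 h, then heated to ten temperatures (37-66.3 °C), and soluble protein was quantified by TMT mass spectrometry relative to 0.1% DMSO controls. The thermal stability score (sum of log2 fold changes minus the abundance score) was transformed to a z-score; mean of n = 3 experiments.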

[2] = compound: O=[As]([O-])(O)O.[K+] [potassium arsenate]; test: as above; conditions: HeLa; arsenate concentration 1 mM
Description: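 Cellular thermal proteome profiling in HeLa cells treated with 1 mM arsenate for 1 h (DMSO pretreatment), heated to ten temperatures (37-66.3 °C). Soluble protein was quantified by TMT mass spectrometry relative to DMSO controls; the thermal stability score was transformed to a z-score; mean of n = 3 experiments.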

[3] = arsenate co-treatment: 1 mM arsenate 1 h
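Further: each temperature applied for 3 min, abundance score taken as mean log2 fold change at the two lowest temperatures, z-score obtained by mean subtraction and division by SD.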

UniProt Q9BV44, sequence (Q9BV44 whole entry): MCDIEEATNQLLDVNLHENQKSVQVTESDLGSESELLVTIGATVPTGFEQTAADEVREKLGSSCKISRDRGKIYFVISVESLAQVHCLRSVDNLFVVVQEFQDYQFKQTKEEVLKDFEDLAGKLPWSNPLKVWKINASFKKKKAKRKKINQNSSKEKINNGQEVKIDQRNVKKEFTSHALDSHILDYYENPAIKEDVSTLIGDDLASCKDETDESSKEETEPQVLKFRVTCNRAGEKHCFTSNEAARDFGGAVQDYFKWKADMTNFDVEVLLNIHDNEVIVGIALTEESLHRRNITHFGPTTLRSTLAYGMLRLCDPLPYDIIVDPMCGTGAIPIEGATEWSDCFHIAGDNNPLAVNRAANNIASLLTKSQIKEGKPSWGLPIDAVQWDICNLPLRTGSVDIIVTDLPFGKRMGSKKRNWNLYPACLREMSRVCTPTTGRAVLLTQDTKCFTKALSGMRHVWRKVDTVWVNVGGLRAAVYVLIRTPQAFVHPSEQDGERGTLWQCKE
UniProt Q5JUR7, sequence (Q5JUR7 whole entry): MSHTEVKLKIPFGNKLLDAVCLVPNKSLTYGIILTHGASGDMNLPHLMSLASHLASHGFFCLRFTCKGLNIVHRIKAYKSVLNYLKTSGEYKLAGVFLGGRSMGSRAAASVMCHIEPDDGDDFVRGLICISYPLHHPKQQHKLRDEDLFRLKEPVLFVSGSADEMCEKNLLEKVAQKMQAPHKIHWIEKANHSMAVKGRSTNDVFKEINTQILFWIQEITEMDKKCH
UniProt Q9NWX6, sequence (Q9NWX6 whole entry): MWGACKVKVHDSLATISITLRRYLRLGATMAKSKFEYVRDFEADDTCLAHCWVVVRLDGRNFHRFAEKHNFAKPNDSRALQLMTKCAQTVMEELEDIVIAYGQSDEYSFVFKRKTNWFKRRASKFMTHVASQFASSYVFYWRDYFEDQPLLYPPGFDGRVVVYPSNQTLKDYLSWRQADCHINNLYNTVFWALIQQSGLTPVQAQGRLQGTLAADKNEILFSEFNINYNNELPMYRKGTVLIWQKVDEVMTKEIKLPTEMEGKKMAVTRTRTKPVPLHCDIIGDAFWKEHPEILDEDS
UniProt Q01085, sequence (Q01085 whole entry): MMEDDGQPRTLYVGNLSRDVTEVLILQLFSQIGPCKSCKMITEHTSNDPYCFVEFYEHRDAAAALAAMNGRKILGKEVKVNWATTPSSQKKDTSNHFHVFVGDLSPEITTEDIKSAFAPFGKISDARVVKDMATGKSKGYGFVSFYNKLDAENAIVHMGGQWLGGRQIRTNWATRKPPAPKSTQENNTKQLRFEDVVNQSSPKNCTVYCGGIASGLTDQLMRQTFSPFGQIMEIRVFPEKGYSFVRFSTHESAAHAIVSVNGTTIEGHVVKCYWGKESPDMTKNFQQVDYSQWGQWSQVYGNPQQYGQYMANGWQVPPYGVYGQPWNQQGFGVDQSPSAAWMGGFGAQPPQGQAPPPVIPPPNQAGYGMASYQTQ
UniProt Q9UKI8, sequence (Q9UKI8 whole entry): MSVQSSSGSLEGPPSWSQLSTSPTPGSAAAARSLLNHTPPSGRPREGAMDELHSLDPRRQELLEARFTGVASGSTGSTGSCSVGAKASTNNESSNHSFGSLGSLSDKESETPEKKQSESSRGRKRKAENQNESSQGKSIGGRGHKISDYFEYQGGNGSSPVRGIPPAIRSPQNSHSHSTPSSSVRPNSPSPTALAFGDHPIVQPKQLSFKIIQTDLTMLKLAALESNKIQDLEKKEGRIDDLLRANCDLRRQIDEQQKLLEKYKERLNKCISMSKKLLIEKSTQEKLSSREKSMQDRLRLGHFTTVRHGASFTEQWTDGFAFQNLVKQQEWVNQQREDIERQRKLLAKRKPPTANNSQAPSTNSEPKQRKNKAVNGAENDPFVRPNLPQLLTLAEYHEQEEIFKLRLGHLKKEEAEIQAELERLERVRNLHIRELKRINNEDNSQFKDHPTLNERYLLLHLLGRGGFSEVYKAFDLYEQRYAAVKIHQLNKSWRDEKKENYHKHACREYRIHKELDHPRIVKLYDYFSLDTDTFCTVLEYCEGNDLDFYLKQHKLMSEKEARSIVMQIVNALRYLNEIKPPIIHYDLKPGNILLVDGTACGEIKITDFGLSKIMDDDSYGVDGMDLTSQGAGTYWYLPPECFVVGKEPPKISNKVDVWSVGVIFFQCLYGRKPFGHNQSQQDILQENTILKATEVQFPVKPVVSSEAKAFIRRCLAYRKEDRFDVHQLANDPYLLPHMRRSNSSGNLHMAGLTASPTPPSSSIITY
UniProt Q8NI27, sequence (Q8NI27 whole entry): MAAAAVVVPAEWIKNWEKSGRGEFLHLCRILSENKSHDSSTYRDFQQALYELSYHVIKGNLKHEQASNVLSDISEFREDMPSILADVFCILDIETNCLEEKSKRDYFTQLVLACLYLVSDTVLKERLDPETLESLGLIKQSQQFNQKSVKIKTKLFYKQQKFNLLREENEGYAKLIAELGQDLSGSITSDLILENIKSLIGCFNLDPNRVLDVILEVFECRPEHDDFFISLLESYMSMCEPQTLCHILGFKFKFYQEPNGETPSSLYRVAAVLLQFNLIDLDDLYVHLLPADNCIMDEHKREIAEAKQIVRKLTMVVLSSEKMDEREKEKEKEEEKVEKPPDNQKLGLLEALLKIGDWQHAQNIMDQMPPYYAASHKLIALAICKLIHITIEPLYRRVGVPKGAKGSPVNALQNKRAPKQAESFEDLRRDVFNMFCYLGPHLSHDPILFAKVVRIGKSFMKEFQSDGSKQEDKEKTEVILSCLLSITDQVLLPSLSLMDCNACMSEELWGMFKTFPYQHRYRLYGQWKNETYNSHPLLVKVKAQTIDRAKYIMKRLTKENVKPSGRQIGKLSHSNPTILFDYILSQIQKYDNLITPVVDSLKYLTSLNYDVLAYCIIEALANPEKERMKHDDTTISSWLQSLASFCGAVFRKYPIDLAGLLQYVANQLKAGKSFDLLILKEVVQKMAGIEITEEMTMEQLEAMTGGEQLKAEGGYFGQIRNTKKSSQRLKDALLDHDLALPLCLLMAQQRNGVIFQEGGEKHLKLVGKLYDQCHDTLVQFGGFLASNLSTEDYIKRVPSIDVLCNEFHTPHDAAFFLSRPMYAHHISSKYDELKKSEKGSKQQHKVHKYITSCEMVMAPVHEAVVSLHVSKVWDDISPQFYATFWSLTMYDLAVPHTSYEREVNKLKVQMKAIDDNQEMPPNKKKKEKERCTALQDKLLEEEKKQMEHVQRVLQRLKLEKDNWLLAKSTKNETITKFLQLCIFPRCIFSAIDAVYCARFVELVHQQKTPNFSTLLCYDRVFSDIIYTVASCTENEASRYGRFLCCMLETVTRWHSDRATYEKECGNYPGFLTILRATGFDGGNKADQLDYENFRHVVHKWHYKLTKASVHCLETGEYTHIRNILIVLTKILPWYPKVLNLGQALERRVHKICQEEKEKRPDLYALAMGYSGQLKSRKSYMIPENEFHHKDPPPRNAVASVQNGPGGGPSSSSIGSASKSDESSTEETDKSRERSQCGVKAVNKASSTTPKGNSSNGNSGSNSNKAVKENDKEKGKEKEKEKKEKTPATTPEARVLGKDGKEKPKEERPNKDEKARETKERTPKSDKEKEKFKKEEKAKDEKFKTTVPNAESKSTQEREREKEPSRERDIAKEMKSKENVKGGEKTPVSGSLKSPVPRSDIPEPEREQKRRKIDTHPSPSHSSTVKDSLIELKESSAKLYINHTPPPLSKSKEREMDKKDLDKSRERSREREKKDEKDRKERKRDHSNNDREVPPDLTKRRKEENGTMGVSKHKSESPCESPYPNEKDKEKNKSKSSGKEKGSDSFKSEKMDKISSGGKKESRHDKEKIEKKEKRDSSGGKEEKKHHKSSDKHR
UniProt P02786, sequence (P02786 whole entry, looked up): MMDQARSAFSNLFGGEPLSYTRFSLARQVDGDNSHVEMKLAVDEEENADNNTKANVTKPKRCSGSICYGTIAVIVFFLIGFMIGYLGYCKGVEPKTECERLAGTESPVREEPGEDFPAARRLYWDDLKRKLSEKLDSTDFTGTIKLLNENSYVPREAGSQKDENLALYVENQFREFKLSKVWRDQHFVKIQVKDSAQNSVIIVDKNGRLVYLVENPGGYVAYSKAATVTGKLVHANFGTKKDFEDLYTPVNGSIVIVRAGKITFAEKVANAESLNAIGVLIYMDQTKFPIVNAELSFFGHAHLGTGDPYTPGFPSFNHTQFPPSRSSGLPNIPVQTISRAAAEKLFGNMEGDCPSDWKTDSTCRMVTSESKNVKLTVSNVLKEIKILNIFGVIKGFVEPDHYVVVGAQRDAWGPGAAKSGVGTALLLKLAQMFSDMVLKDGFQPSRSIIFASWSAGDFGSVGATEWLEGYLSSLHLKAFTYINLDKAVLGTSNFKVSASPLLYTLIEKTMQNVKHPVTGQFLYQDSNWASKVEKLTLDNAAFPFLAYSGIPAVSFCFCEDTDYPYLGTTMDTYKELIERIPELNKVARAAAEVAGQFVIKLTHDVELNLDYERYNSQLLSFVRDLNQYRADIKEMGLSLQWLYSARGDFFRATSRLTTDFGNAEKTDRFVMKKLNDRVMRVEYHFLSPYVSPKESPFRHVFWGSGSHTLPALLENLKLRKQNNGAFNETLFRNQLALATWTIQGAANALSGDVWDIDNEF
UniProt O00142, sequence (O00142 whole entry): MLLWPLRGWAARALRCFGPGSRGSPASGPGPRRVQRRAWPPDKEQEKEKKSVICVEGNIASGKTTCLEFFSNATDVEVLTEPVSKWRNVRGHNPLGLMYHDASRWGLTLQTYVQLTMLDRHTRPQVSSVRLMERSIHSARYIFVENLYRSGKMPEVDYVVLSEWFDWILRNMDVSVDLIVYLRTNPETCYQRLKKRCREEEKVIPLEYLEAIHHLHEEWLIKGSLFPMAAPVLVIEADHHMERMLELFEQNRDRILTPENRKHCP
UniProt Q8WUY1, sequence (Q8WUY1 whole entry): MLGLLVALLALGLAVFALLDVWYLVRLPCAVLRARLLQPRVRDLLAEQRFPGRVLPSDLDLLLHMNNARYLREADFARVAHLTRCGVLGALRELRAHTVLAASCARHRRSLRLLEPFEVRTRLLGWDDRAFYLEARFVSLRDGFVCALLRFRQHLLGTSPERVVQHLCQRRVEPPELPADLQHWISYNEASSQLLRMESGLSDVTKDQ

Target	thermal stability z-score [1, 3]	thermal stability z-score ([1]; arsenate co-treatment: none)	thermal stability z-score [2]
TEX30 (UniProt Q5JUR7)	0.373	-0.174	-0.411
TEX264 (UniProt Q9Y6I9)	-0.151	-0.929	-0.568
TFAM (UniProt Q00059)	-0.198	-0.126	-0.121
TFAP2A (UniProt P05549)	0.831	0.868	0.566
TFAP4 (UniProt Q01664)	0.339	0.809	1.02
TFB1M (UniProt Q8WVM0)	-0.367	0.233	0.0871
TFB2M (UniProt Q9H5Q4)	-0.3	-0.261	0.215
TFCP2 (UniProt Q12800)	0.151	0.69	0.147
TFDP1 (UniProt Q14186)	-0.00506	0.0652	-0.0388
TFG (UniProt Q92734)	0.607	0.76	0.134
TFIP11 (UniProt Q9UBB9)	-0.0949	-0.0621	-0.187
TFRC (UniProt P02786)	0.193	0.202	0.144
TGFB1 (UniProt P01137)	-2.9	-3.34	-0.306
TGFBR1 (UniProt P36897)	-0.829	0.245	-0.162
TGFBRAP1 (UniProt Q8WUH2)	0.0561	-0.0483	-0.0443
TGIF1 (UniProt Q15583)	-0.557	-0.274	-0.203
TGOLN2 (UniProt O43493)	0.152	0.0237	-0.275
TGS1 (UniProt Q96RS0)	-0.109	-0.175	1.17
TH1L|NELFCD	-0.0628	-0.0836	0.0938
THADA (UniProt Q6YHU6)	-0.42	-0.349	-0.361
THBS1 (UniProt P07996)	-0.588	-0.841	-0.825
THEM4 (UniProt Q5T1C6)	-0.175	-0.235	-0.626
THEM6 (UniProt Q8WUY1)	0.308	0.289	0.723
THG1L (UniProt Q9NWX6)	0.578	0.85	0.463

Target	thermal stability z-score [1, 3]	thermal stability z-score ([1]; arsenate co-treatment: none)	thermal stability z-score [2]
THNSL1 (UniProt Q8IYQ7)	0.202	-0.188	0.0365
THOC1 (UniProt Q96FV9)	0.298	-0.0559	-0.258
THOC2 (UniProt Q8NI27)	-0.212	-0.102	0.273
THOC3 (UniProt Q96J01)	0.252	0.058	-0.683
THOC5 (UniProt Q13769)	0.945	0.187	0.536
THOC6 (UniProt Q86W42)	0.337	0.402	0.429
THOC7 (UniProt Q6I9Y2)	0.192	0.175	-0.26
THOP1 (UniProt P52888)	-0.0659	-0.212	-0.915
THRAP3 (UniProt Q9Y2W1)	1.84	0.438	-0.985
THTPA (UniProt Q9BU02)	0.32	-0.0368	0.53
THUMPD1 (UniProt Q9NXG2)	0.166	0.155	3.08
THUMPD2 (UniProt Q9BTF0)	-0.2	-0.425	0.0998
THUMPD3 (UniProt Q9BV44)	0.0954	-0.489	0.37
THYN1 (UniProt Q9P016)	0.476	0.00625	-0.603
TIA1 (UniProt P31483)	-0.376	0.000117	-1.08
TIAL1 (UniProt Q01085)	-0.227	0.0243	-1.23
TICAM1 (UniProt Q8IUC6)	-0.187	-0.204	-0.325
TIFA (UniProt Q96CG3)	-0.71	-0.0546	-0.879
TIGAR (UniProt Q9NQ88)	-1.91	0.677	0.655
TIMELESS (UniProt Q9UNS1)	-0.244	-0.0831	-0.498
TIMM13 (UniProt Q9Y5L4)	1.99	1.56	-0.381
TIMM17A (UniProt Q99595)	0.133	-0.417	0.164
TIMM17B (UniProt O60830)	0.0946	-0.362	0.173
TIMM21 (UniProt Q9BVV7)	0.0115	0.000788	0.255

Target	thermal stability z-score [1, 3]	thermal stability z-score ([1]; arsenate co-treatment: none)	thermal stability z-score [2]
TIMM23 (UniProt O14925)	0.248	-0.124	0.0795
TIMM44 (UniProt O43615)	0.147	0.291	-0.65
TIMM50 (UniProt Q3ZCQ8)	-0.412	-0.179	-0.391
TIMMDC1 (UniProt Q9NPL8)	0.185	-0.271	0.538
TIMP1 (UniProt P01033)	-0.407	-1.02	-0.272
TIMP2 (UniProt P16035)	-0.833	-0.411	0.923
TIPIN (UniProt Q9BVW5)	-0.58	0.146	0.349
TIPRL (UniProt O75663)	-0.215	-0.0559	0.122
TJAP1 (UniProt Q5JTD0)	-1.54	-0.576	-0.0307
TJP1 (UniProt Q07157)	0.078	-0.0866	0.371
TJP2 (UniProt Q9UDY2)	-0.259	-0.231	0.438
TK1 (UniProt P04183)	0.233	0.418	-0.307
TK2 (UniProt O00142)	0.341	0.589	-0.137
TKFC (UniProt Q3LXA3)	0.239	0.23	-0.753
TKT (UniProt P29401)	0.488	0.386	-0.045
TLCD1 (UniProt Q96CP7)	-0.0961	-0.035	0.587
TLDC1 (UniProt Q6P9B6)	-0.455	-0.204	-0.238
TLE2 (UniProt Q04725)	-0.165	0.842	0.141
TLE3 (UniProt Q04726)	0.171	0.329	-0.674
TLE4 (UniProt Q04727)	-0.201	0.36	0.289
TLK1 (UniProt Q9UKI8)	0.193	-0.983	0.956
TLK2 (UniProt Q86UE8)	-0.838	0.0336	0.502
TLN1 (UniProt Q9Y490)	0.266	0.266	-0.682
